{"source": "paper PMC10340464", "about": "“Identification of a Novel SSTR3 Full Agonist for the Treatment of Nonfunctioning Pituitary Adenomas” (Cancers, 2023)", "key": {"[1]": {"system": "SSTR2-tGFP", "assay": "Receptor internalization in U2OS-transfected cells (SSTR2-tGFP)", "format": "cell-based, human", "settings": "3 h, high-content imaging, n = 3, method: percentage of activity relative to SST28 10^−6 M", "description": "(§1) Compounds were tested at five concentrations (10^−5, 10^−6, 10^−7, 10^−8, 10^−9 M) in comparison to untreated cells.\n(§2) SST agonists were added to U2OS recombinant cell lines in OptiMeM medium (Life technologies 51985-034, Monza, Italy) for 3 h (SSTR2, SSTR3) or 7 h (SSTR5) (n = 3). After formaldehyde fixation, nuclei were stained using DAPI (2 µg/mL), and the fluorescence was measured with BD Pathway 855 High-Content Bioimager from Becton Dickinson. The receptor internalization was calculated using AttoVision 1.6 Software. Approximately 500 cells per field were analyzed. […]\n(§3) (Invitrogen, Carlsbad, CA). Stable transfectants were selected in the presence of 500 µg/ml G-418. […]\n(§4) % picric acid in phosphate buﬀer (pH 6.9) for 30 minutes at room temperature (RT). […]\n(§5) 3.2. U2OS human cell lines transfected with human receptors (SSTR2-tGFP, SSTR3-tGFP,\n(§6) Compounds were tested at ﬁve d iﬀerent concentrations (10-5, 10-6, 10-7, 10-8, 10^-9 M) in comparison to untreated cells.\n(§7) U2OS recombinant cell lines were obtained from Innoprot (Derio, Spain). […] Nuclei were stained using DAPI (2 μg/ml) and the ﬂuorescence was measured using a BD Pathway 855 High-Content Bioimager from Becton Dickinson. The receptor internalization was calculated using AttoVision Software. […]\n(§8) Agonist activity of test compounds was calculated relatively to positive control"}, "[2]": {"system": "SSTR5-tGFP", "assay": "Receptor internalization in U2OS-transfected cells (SSTR5-tGFP)", "format": "cell-based, human", "settings": "7 h, high-content imaging, n = 3, method: percentage of activity relative to SST28 10^−6 M", "description": "as §1, §2, §3, §4, §5, §6, §7, §8"}, "[3]": {"molecular_target": "T1, SSTR2 (Homo sapiens, UniProt P30874)", "T1 construct": "expressed in transfected cells", "T1 sequence (P30874 whole entry)": "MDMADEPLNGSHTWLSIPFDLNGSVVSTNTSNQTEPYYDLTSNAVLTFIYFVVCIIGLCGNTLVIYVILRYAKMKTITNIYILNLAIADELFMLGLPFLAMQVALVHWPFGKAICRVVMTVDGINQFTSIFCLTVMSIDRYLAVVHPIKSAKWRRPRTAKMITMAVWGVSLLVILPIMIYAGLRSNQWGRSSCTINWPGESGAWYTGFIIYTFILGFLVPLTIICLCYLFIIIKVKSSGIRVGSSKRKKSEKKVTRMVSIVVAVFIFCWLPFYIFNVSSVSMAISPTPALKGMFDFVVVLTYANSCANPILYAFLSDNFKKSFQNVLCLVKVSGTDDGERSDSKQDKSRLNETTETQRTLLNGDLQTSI", "assay": "SSTR2 phosphorylation, Western blot with phosphosite-specific antibodies, HEK293-transfected", "format": "cell-based", "settings": "HEK293 stably expressing SSTR2, agonist 5 min 37 °C", "description": "Western blot analysis was performed as previously described.\nNext, the activation of human SSTRs induced by SSAs was tested by Western blot using phosphosite-specific antibodies directed against the following residues: S341/pS343 for SSTR2; S337/T341 for SSTR3; T333 for SSTR5 [31].\n4.1. Western blot analysis\nWestern blot analysis was performed as previously described.7–9 Brieﬂy, HEK293 cells stably expressing the human somatostatin receptors were seeded onto poly-L-lysine-coated 60 mm dishes and grown to 90 % confluency. […]\nPierceTM HA epitope tag antibody beads (Thermo Scientific, Rockford, USA) were used to enrich HA-tagged somatostatin receptors or wheat germ lectin-agarose beads for no-tagged somatostatin receptors. To elute proteins from the beads, the samples were incubated in SDS sample buffer for 20 min at 60°C. Supernatants were separated from the beads, loaded on 8% SDS polyacrylamide gels and immunoblotted onto nitrocellulose membranes afterwards. After blocking, membranes were incubated with phosphorylation state-speciﬁc somatostatin receptor antibodies: pS337/pT341-SST3 (7TM0357A), […]\nAntibodies GmbH, Jena, Germany) at a dilution of 1:1000 at 4°C overnight. Membranes were incubated in HRP-linked secondary antibody for 2 hours, followed by detection using a chemiluminescence system (90 mM p-coumaric-acid, 250 mM luminol, 30% […]\naccording to the manufacturer’s instructions."}, "[4]": {"system": "GHRH-stimulated GH release, primary cultures of rat anterior pituitary cells", "assay": "Inhibition of GHRH-induced GH release in rat pituitary primary cell culture", "format": "cell-based", "settings": "rat GHRH 3x10^-9 M, 3 h 37 °C, GH by ELISA"}, "[5]": {"system": "µ (MOP) (h)", "assay": "Single-dose binding assay on µ opioid receptor", "set-up": "species or system human", "settings": "10^−5 M"}, "[6]": {"system": "NOP (ORL1) (h)", "assay": "Single-dose binding assay on NOP receptor", "set-up": "species or system human", "settings": "10^−5 M"}, "[7]": {"system": "NFPAs of MENX (homozygous mutant) rats", "assay": "In vivo efficacy against endogenous NFPAs in MENX rats", "set-up": "species or system rat", "settings": "12.5 mg/kg s.c. every 14 days, 56 days", "description": "Tumor monitoring in rats was conducted using MRI at day 0 (pretreatment) and every 14 days post-treatment (days 14, 28, 42, 56). MRI was performed on a 7T preclinical scanner (Bruker BioSpin MRI GmbH, Ettlingen, Germany) using previously published procedures suitable to visualize the rat pituitary tumors. In the T2 weighted datasets, regions of interest (ROIs) were manually segmented around the adenomas in every slice where they appeared; tumor volumes were finally calculated from the data (area of particular ROIs and slice thickness) using an implemented algorithm in Osirix/Horos (Pixmeo SARL/Horos Project) as previously described.\nRNA was extracted using RNeasy Mini Kit (Qiagen, Cluj-Napoca, Romania) following the manufacturer’s instructions. Total RNA concentration and purity was assessed using Nanodrop 2000 spectrophotometer (Thermo Scientific, Waltham, MA, USA). Total RNA was retrotranscribed using random hexamer primers and the cDNA First Strand Synthesis kit (Thermo Scientific). Details regarding the quantitative PCR (qPCR) procedure used to determine the absolute expression levels of the different somatostatin receptor genes (Sstr1-5) have been previously reported. Specific sets of primers for these genes have been previously validated and reported. To control for the amount of RNA and for the efficiency of the retrotranscription reaction, mRNA copy numbers of the different transcripts analyzed were adjusted by β-actin (ACTB) expression (used as housekeeping gene).\nKi67-positive tumor cells per 100,000 µm^2 were counted under the microscope in 3 independent areas for each tumor sample.\nLinear mixed-effects (LME) models were applied for longitudinal analysis of tumor volume growth, with absolute tumor volume at day 0 used for scaling subsequent measurements of each individual, as previously reported. Relative volumes were transformed by natural logarithms for use as model outcomes in order to meet the normal distributional assumptions. Linear and quadratic growth predictors and interactions were considered for significance testing, performed by the F-test, with results presented as the mean ± standard error of the mean (SEM). Statistical significance between two series of data was determined by one-way ANOVA. A p value < 0.05 was considered statistically significant."}, "[8]": {"settings": "species, matrix, method and reference not given; cited from earlier work"}}}
{"smiles": "COc1cc2cccc(OC)c2cc1C[C@H]1NC(=O)[C@H](Cc2ccc(O)cc2)NC(=O)[C@@H]2C[C@@H](OC(=O)NCCN)CN2C(=O)[C@H](Cc2ccccc2)NC(=O)[C@H](Cc2ccc(OCc3ccccc3)cc2)NC(=O)[C@H](CCCCN)NC1=O", "note": "[ITF2984, Cyclo[Tyr(Bn)-Phe-Pro(4-OCONH(CH2)2NH2)-Tyr-3,8-diMeONal-Lys]]", "values": [{"measurement": "Receptor internalization in U2OS-transfected cells, SSTR2, at 10^−5 M", "setting": "[1]; 10^−5 M", "value": 37.3}, {"measurement": "Receptor internalization in U2OS-transfected cells, SSTR2, at 10^−6 M (value in brackets)", "setting": "[1]; 10^−6 M", "value": 35.9}, {"measurement": "Receptor internalization in U2OS-transfected cells, SSTR5, at 10^−5 M", "setting": "[2]; 10^−5 M", "value": 34.6}, {"measurement": "Receptor internalization in U2OS-transfected cells, SSTR5, at 10^−6 M (value in brackets)", "setting": "[2]; 10^−6 M", "value": 42.0}, {"measurement": "Phosphorylation SSTR sites (HEK293-transfected): SSTR2—PS341/S343", "setting": "[3]", "value": "++"}, {"measurement": "GH release (inhibition ≅ 1 nM)", "setting": "[4]", "value": 50, "unit": "%"}, {"measurement": "Percentage of inhibition of opioid receptor µ (MOP) (h) (agonist)", "setting": "[5]", "value": 97, "unit": "%"}, {"measurement": "Percentage of inhibition of opioid receptor NOP (ORL1) (h) (agonist)", "setting": "[6]", "value": 61, "unit": "%"}, {"measurement": "change in number of Ki67-positive cells versus placebo, female rats", "setting": "[7]; female MENX rats", "value": "−57", "unit": "%"}, {"measurement": "tumor volume during treatment (MRI), female rats", "setting": "[7]; female MENX rats, MRI every 14 days", "value": "only a slight increase in tumor volume"}, {"measurement": "number of Ki67-positive cells per area, average, female rats", "setting": "[7]; female MENX rats, placebo 312", "value": "134 cells per 100,000 mm^2"}, {"measurement": "change in number of Ki67-positive cells versus placebo, male rats", "setting": "[7]; male MENX rats", "value": "−33.5", "unit": "%"}, {"measurement": "number of Ki67-positive cells per area, average, male rats", "setting": "[7]; male MENX rats, placebo 375", "value": "250 cells per 100,000 mm^2"}, {"measurement": "Half-time life", "setting": "[8]", "value": 18, "unit": "h"}]}
